According to ChEMBL document CHEMBL1147269, “Cribrarione B, a new naphthoquinone pigment from the myxomycete Cribraria cancellata” (J Nat Prod, 2003):
Activity calls are given as the source filed them. No cut-off for these calls is given here.

Tested on: Bacillus subtilis
Assay: Antimicrobial activity against Bacillus subtilis
Format: functional, organism-based

CC(O)c1cc(O)c2c(c1O)C(=O)C=C(O)C2=O (stereo unspecified)
Activity: inactive
